Test: Interim pharmacokinetics, multiple-dose study (Example 5)
Assay type: in vivo, human
Protocol: Interim Pharmacokinetic results of the study were derived from plasma concentrations of 9-cis-retinyl acetate and its metabolites, measured throughout the study period at prescribed time points. The scope of this interim PK analysis encompasses samples from Cohort 1 including the placebo (n=2), 40 mg/m^2 (n=6) and 60 mg/m^2 (n=2) dose groups obtained in treatment cycles 1, 2 and 3.
The plasma samples were analyzed by liquid chromatography-mass spectrometry-mass spectrometry (LC/MS/MS) for parent drug and potential metabolites. Noncompartmental (NCA) pharmacokinetic (PK) parameters such as AUC were obtained using the WinNonlin software with observational determination of Cmax, tmax, and duration of concentrations above baseline (TD).

accumulation of 9-cis-retinol and retinyl ester metabolites on multiple-dosing (40 mg/m^2, repeated seven day cycles): slight to modest accumulation
plasma concentrations (Cohort 1, 40 and 60 mg/m^2, cycles 1-3): low and transient
Structure (SMILES): CC(=O)OC/C=C(C)/C=C/C=C(C)\C=C\C1=C(C)CCCC1(C)C [9-cis-Retinyl acetate, (2E, 4E, 6Z, 8E)-3,7-dimethyl-9-(2,6,6-trimethylcyclohex-1-en-1-yl) nona-2,4,6,8-tetraen-1-yl acetate]
accumulation of metabolites from cycle to cycle (40 mg/m^2, Cycles 1, 2 and 3): no accumulation being observed from cycle to cycle

Source: US10828267B2, “Therapeutic regimens and methods for improving visual function in visual disorders associated with an endogenous retinoid deficiency” (RETINAGENIX THERAPEUTICS, INC., priority 2012, dated 2020)
